Data: patent US6239145A, “Nitroxyl compounds and drugs and reagents containing the same as the active ingredient” (Daiitchi Radioisotope Laboratories, Ltd., priority 1997, dated 2001)

Key:
in vivo = details: mouse, iv
Protocol: (§5) The test was performed using sixteen groups of three mice each (ddY, female) as experimental animals as described below. 7.5 μmol of the test samples (2.5 μmol for 3-carboxy-PROXYL acetoxymethyl ester) were administered to the vena caudalis of the mice under ether, and allowed to stand for 3, 10, and 30 minutes, respectively. The mice were then dehematized quickly and the brain was removed. The brain was homogenized with a phosphate buffer solution in an amount nine times that of the removed brain. The blood was diluted with a phosphate buffer solution in an amount nine times thereof. A potassium ferricyanide solution was added to part of the tissue thus treated so that the final concentration was 1 mM. The test samples which had become hydroxylamines by the active oxygen and the like in vivo were converted to nitroxide radicals (one electron oxidation) to prepare ESR samples.
(§6) The concentration of the test samples after one electron oxidation was measured by x-band ESR and determined as the concentration of the samples in vivo. The test sample solution in an amount equal to that administered to the mice was prepared. This solution was treated in the same way, beginning from the addition of the nine-fold phosphate buffer solution. The concentration of the test sample was measured by x-band ESR and was determined as the total dosage. 15 mm of each sample taken into a 100 μl capillary (length 116.5 mm) was put into a quartz cell to measure the ESR spectrum under the following conditions.
(§7) Measuring device: Electron spin resonance spectrometry "JES-RE1X" (manufactured by JEOL Ltd.)
Magnetic field: 331.5±5 mT
Time constant: 0.03 second
(§8) The ratio of the test samples in the brain and blood to the total dosage (% dose), the value obtained by dividing the % dose by the weight of the brain and blood (% dose/g), and the ratio of the % dose/g of the brain, which was the target organ, to the % dose/g of the blood were calculated from the ESR spectrum.

[1] = Organ distribution in mice by X-band ESR; details: for Blood (% dose) / Brain (% dose): vena caudalis, 7.5 μmol (2.5 μmol for 3-carboxy-PROXYL acetoxymethyl ester)
Protocol: as §5, §6, §7
Magnetic field: 331.5±5 mT
Time constant: 0.03 second
as §8

in vitro = in vitro ADME; details: carboxylesterase, 37° C., mean ± SD, n = 3, read-out: Hydrolysis Rate; for metabolised at 10 s: 10 sec., SD printed on next line: 0.43 (methyl ester), 11.9 (acetoxymethyl ester); for metabolised at 1 min: SD printed on next line: 0.34 (methyl ester), 3.4 (acetoxymethyl ester); for metabolised at 0.05 h: 3 min., 1.1 (acetoxymethyl ester); for metabolised at 0.05 h / metabolised at 5 min: SD: 0.49 (methyl ester); for metabolised at 5 min: 2.2 (acetoxymethyl ester); for metabolised at 10 min: SD printed on next line: 0.08 (methyl ester); for metabolised at 10 min / metabolised at 0.5 h: 0.0 (acetoxymethyl ester); for metabolised at 0.5 h: 30 min., SD printed on next line: 1.51 (methyl ester)
Protocol: (§1) Changes with time in the hydrolysis rate of 3-carboxy-PROXYL methyl ester and 3-carboxy-PROXYL acetoxymethyl ester by an esterase were examined.
(§2) 200 μl of a 10 mM test sample solution was mixed with 800 μl of 5 micro units of an esterase (carboxy esterase, carboxylic ester hydrolase; EC 3.1.1.1 manufactured by Sigma, catalogue No. E3128). The mixture was incubated at 37° C. for 10 seconds, 1 minute, 3 minutes, 5 minutes, 10 minutes, and 30 minutes, respectively. The mixture was then analyzed by HPLC to calculate the hydrolysis rate from the amount ratio of the unchanged product to 3-carboxy-PROXYL which is a hydrolysate thereof.
(§3) HPLC was performed using a UV-VIS detector (UV-8020), a dual pump (CCPS), a column (ODS-80Ts), and a TSK precolumn (BSA-ODS) all manufactured by Tosoh Corp.
(§4) Mobile phase: 20 mM phosphate buffer solution (pH 2.2)/methanol=60/40

[2] = tested on: esterase (carboxy esterase, carboxylic ester hydrolase; EC 3.1.1.1); test: in vitro; type: in vitro ADME
Protocol: as §1, §2, §3, §4

mouse brain = type: in vivo; details: 2.5 μmol, vena caudalis
Protocol: . An L band ESR-CT image of the head axial transverse section was measured under the following conditions.
Measuring device: Electron spin resonance spectrometry
"JES-RE31" (manufactured by JEOL Ltd.)
Magnetic field gradient: 0.45 mT/cm
Projection: 18 (every 10°)
Magnetic field modulation: 100 kHz
Time constant: 0.003 second
Measurement temperature: room temperature

| Compound | Kp at 10 min (in vivo) | Blood (% dose) ([1]; 3 min.) | Brain (% dose) ([1]; 3 min.) | Blood (% dose) ([1]; 10 min.) | Brain (% dose) ([1]; 10 min.) | Blood (% dose) ([1]; 30 min.) | Brain (% dose) ([1]; 30 min.) | brain to blood ratio (ratio of % dose/g of the brain to % dose/g of the blood) ([1]; after 10 minutes) | metabolised at 10 s (in vitro) [%] | metabolised at 1 min (in vitro) [%] | metabolised at 0.05 h (in vitro) [%] | metabolised at 5 min (in vitro) [%] | metabolised at 10 min (in vitro) [%] | metabolised at 0.5 h (in vitro) [%] | Speed of hydrolysis by esterase compared with methyl ester, in words [2] | Hydrolysis by esterase, in words ([2]; after 10 seconds) | L band ESR-CT: concentration inside the brain (mouse brain) | L band ESR-CT: concentration outside the brain (mouse brain) | Kp at 0.5 h (in vivo) |
| --- | --- | --- | --- | --- | --- | --- | --- | --- | --- | --- | --- | --- | --- | --- | --- | --- | --- | --- | --- |
| CCOC(=O)C1CC(C)(C)N([O])C1(C)C (centres unmarked) [3-carboxy-PROXYL ethyl ester] | 0.84 to 1.78 | 3.46 | 0.79 | 2.92 | 0.74 | 3.38 | 0.12 |  |  |  |  |  |  |  |  |  |  |  |  |
| 2-ethyl-2,5,5-trimethyloxazolidinyloxy |  | 4.52 | 1.63 | 3.69 | 1.64 | 0.81 | 0.52 | 0.84-1.78 |  |  |  |  |  |  |  |  |  |  |  |
| CC(=O)OCOC(=O)C1CC(C)(C)N([O])C1(C)C (centres unmarked) [3-carboxy-PROXYL acetoxymethyl ester, acetoxymethyl-2,2,5,5-tetramethylpyrrolidinyloxy-3-carboxylate] | 3.14 | 6.28 | 2.26 | 4.41 | 2.77 | 4.21 | 1.98 |  | 30.1 | 70.8 | 93.9 | 96.7 | 100 | 100 | hydrolyzed by an esterase in a shorter period of time than 3-carboxy-PROXYL methyl ester | slightly hydrolyzed | still more highly concentrated inside the brain | decreased accumulation outside the brain | 2.88 |
| COC(=O)C1CC(C)(C)N([O])C1(C)C (centres unmarked) [3-carboxy-PROXYL methyl ester] | 0.84 to 1.78 | 4.62 | 1.31 | 2.68 | 0.67 | 2.18 | 0.21 |  | 0.05 | 0.4 | 0.8 | 1.35 | 2.54 | 8.25 |  |  | highly concentrated inside the brain | concentrated outside the brain |  |
